In article PMC8228600, “Design, Synthesis, In Vitro and In Vivo Evaluation of Heterobivalent SiFAlin-Modified Peptidic Radioligands Targeting Both Integrin αvβ3 and the MC1 Receptor—Suitable for the Specific Visualization of Melanomas?” (Pharmaceuticals, 2021):

Experiments:
B16F10 and U87MG tumors = assay: In vivo dynamic PET/CT imaging and time–activity curves; design: species or system nude mice (Balb/cAnNRj-Foxn1nu/nu); details: for visualization of B16F10 and U87MG tumors by PET/CT: PET/CT scans, MIPs 50–90 min post-injection; for time at which uptakes in kidneys and liver reached their maximum (TACs) / time at which the curves of both tumors approached a plateau (TACs): dynamic PET over 90 min, i.v.; for time at which the curves of both tumors approached a plateau (TACs): B16F10 and U87MG tumors
Description: For the evaluation of the in vivo pharmacokinetics, the two most promising HBPLs—[^18F]2 with the highest affinity to both target receptors and [^18F]4 with the highest hydrophilicity and still reasonable binding affinities—were selected. For PET/CT imaging, 6-week-old male nude mice (Balb/cAnNRj-Foxn1^nu/nu) were subcutaneously injected with 5 × 10^5 B16F10 cells into the right flank and 2.0–2.5 × 10^6 U87MG cells into the left flank to generate the respective receptor-positive tumors. When the tumors reached a sufficient size for imaging, each mouse was administered 4.15 ± 2.28 MBq of [^18F]2 or 3.95 ± 2.06 MBq of [^18F]4 via the lateral tail vein under isoflurane anesthesia. To determine the receptor specificity of both peptide parts of the labeled HBPLs and their relative contribution to overall tumor uptake, blocking experiments were also performed. […] After i.v. injection of the tracers, a dynamic PET scan, followed by a CT scan, was performed. The resulting PET/CT images and time–activity curves (TACs) are depicted in Figure 6, Figure 7 and Figure 8. After completion of the diagnostic scans, the mice were sacrificed, their organs (blood, spleen, liver, kidney, pancreas, lung, heart, brain, bone, muscle, tail, tumors, stomach, colon and small intestine) were collected and measured in a γ-counter for ex vivo biodistribution (see Supplementary Materials Table S1 for detailed results).
Briefly, 4–5-week-old male nude mice (Balb/cAnNRj-Foxn1^nu/nu) were obtained from Janvier. A dynamic PET scan over 90 min and a subsequent CT image over 20 min were acquired using a triple-modality Bruker Albira II small-animal PET/CT/SPECT scanner. Three animals were studied per group.
Each male nude mouse (six weeks old) was injected subcutaneously with 5 × 10^5 B16F10 cells into the right flank and 2.0–2.5 × 10^6 U87MG cells into the left flank. The health status and tumor growth of the mice were monitored regularly until the animals could be examined after 15–21 days, depending on the tumor size. For the in vivo experiments, the ^18F-radiolabeled compound was diluted in 0.9% saline to give a final EtOH concentration of <10%. Each mouse was injected with 4.15 ± 2.28 MBq of [^18F]2 or 3.95 ± 2.06 MBq of [^18F]4 via the lateral tail vein under isoflurane anesthesia. […] Each ^18F-labeled compound was studied with or without blocking in at least three mice. Mice were measured under isoflurane anesthesia in a small PET/SPECT/CT animal imaging system. First, a dynamic PET scan was performed over 90 min and the scan was framed in 29 timeframes (10 × 1 min, 10 × 2 min, 6 × 5 min, 3 × 10 min). Images were reconstructed using 12 iterations, a maximum likelihood expectation maximization (MLEM) algorithm including corrections for scattered radiation and decay and a voxel size of 0.5 mm. All PET scans were immediately followed by CT acquisition at a voltage of 45 kV and a current of 400 μA. The images were reconstructed using the filtered back projection (FBP) algorithm with a voxel size of 250 μm. The analysis of the data, including the generation of TACs of the kidneys, liver and tumors and the MIPs, was performed via PMOD (v3.8). For ex vivo biodistribution, the mice were sacrificed directly after the PET/CT scan. Organs (blood, spleen, liver, kidneys, pancreas, lungs, heart, brain, bone, muscle, tail, tumors, stomach, colon and small intestine) were collected, weighed and their radioactivity measured in a γ-counter. The percentage injected dose per gram (% ID/g) of each tissue was calculated from the determined values, organ weights, reference values and injected activity.

[1] = logD(7.4) determination (n-octanol / phosphate buffer distribution); type: physicochemical; details: n-octanol / 0.05 M phosphate buffer pH 7.4; mean ± SD
Description: Since high lipophilicity of peptidic radiotracers can lead to a high plasma protein binding, resulting in unspecific organ and high liver uptakes, thus negatively impact tumor visualization, the lipophilicity of the HBPLs was determined to get an approximate estimation of the in vivo biodistribution behavior of the radioligands. Therefore, the logD(7.4) values of the SiFAlin-modified HBPLs [^18F]1–[^18F]6 were determined via their distribution coefficient between n-octanol and phosphate buffer at pH 7.4.
The radiotracer solutions were first diluted with 0.9% NaCl solution to give a final EtOH concentration of <10%. A total of 5 MBq of the respective radiotracer in solution was added to 1.6 mL of a mixture of n-octanol and 0.05 M phosphate buffer (pH = 7.4) (v/v, 1/1), and the solution was vigorously shaken for 5 min. Subsequently, the phases were separated by centrifugation at 13.4 rpm for 2 min, and 100 μL of organic and aqueous phases were collected. The activity of each sample was measured using a gamma counter. The lipophilicity of each compound was determined in triplicate in three independent experiments.

Structure (SMILES)	visualization of B16F10 and U87MG tumors by PET/CT (B16F10 and U87MG tumors)	time at which uptakes in kidneys and liver reached their maximum (TACs) (B16F10 and U87MG tumors)	time at which the curves of both tumors approached a plateau (TACs) (B16F10 and U87MG tumors)	logD [1]
CCCC[C@H](NC(=O)CNC(=O)CNC(=O)CCOCCOCCOCCOCCC(=O)NCCCN(CCCNC(=O)CCOCCOCCOCCOCCC(=O)NCCCC[C@@H]1NC(=O)[C@@H](Cc2ccccc2)NC(=O)[C@H](CC(=O)O)NC(=O)CNC(=O)[C@H](CCCNC(=N)N)NC1=O)CC(=O)N[C@@H](CCCCNC(=O)CCC[N+](C)(C)Cc1ccc([Si](F)(C(C)(C)C)C(C)(C)C)cc1)C(N)=O)C(=O)N[C@H]1CC(=O)NCCCC[C@@H](C(N)=O)NC(=O)[C@H](Cc2c[nH]c3ccccc23)NC(=O)[C@H](CCCNC(=N)N)NC(=O)[C@@H](Cc2ccccc2)NC(=O)[C@H](Cc2c[nH]cn2)NC1=O [[^18F]2]	clearly visualize	5 to 10 min	about 70 min	-1.19 ± 0.05
CCCC[C@H](NC(=O)CNC(=O)CNC(=O)CCOCCOCCOCCOCCOCCOCCOCCOCCOCCC(=O)NCCCN(CCCNC(=O)CCOCCOCCOCCOCCOCCOCCOCCOCCOCCC(=O)NCCCC[C@@H]1NC(=O)[C@@H](Cc2ccccc2)NC(=O)[C@H](CC(=O)O)NC(=O)CNC(=O)[C@H](CCCNC(=N)N)NC1=O)CC(=O)N[C@@H](CCCCNC(=O)CCC[N+](C)(C)Cc1ccc([Si](F)(C(C)(C)C)C(C)(C)C)cc1)C(N)=O)C(=O)N[C@H]1CC(=O)NCCCC[C@@H](C(N)=O)NC(=O)[C@H](Cc2c[nH]c3ccccc23)NC(=O)[C@H](CCCNC(=N)N)NC(=O)[C@@H](Cc2ccccc2)NC(=O)[C@H](Cc2c[nH]cn2)NC1=O [[^18F]4]	clearly visualize	5 to 10 min	about 70 min	-1.39 ± 0.03
